Laboratory results taken from patent publication US20150290200A1, “INTRACELLULAR KINASE INHIBITORS” (Pharmacyclics Inc., priority 2006, published 2015).
pIC50: −log10 of the molar value. Like-named read-outs stand apart in the source and are kept apart here.

Legend:
BTK kinase domain = target: T1, BTK kinase domain (Homo sapiens, UniProt Q06187); experiment: In vitro kinase assay (HITHUNTER), BTK; assay type: biochemical
T1 construct: The kinase domains of BTK, LCK and ERK were expressed as recombinant purified proteins; made in house
Description: (§1) Similarly, commercially available reagents such as HITHUNTER™ were used to evaluate the effect of compounds on the activity of additional kinases. The kinase domains of BTK, LCK and ERK were expressed as recombinant purified proteins were used for these studies.

ITK kinase domain = target: T2, ITK kinase domain (Homo sapiens, UniProt Q08881); experiment: In vitro kinase assay (HITHUNTER enzyme fragment complementation), ITK; assay type: biochemical
T2 construct: N-terminally His-tagged ITK kinase domain (amino acids 352-617); His (N); made in house
T2 sequence (Q08881 352-617): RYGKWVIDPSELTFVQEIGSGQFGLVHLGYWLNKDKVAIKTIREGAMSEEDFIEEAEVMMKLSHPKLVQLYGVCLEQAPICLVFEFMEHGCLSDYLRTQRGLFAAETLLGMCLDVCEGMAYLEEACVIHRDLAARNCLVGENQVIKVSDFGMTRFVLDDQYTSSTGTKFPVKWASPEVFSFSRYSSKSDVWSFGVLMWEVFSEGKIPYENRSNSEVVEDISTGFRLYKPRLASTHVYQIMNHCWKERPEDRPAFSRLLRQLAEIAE
Description: Compounds were screened using the HITHUNTER™ enzyme fragment complementation method (Discoverx). Briefly, a recombinantly produced, N-terminally His-tagged ITK kinase domain (amino acids 352-617) was incubated with various concentrations of individual compounds. ATP and substrate were added, and the kinase reaction was allowed to proceed for 2-16 hours. Commercially available detection reagents were added and allowed to react for 2-4 hours. The reaction was evaluated by luminescence. Initial results were confirmed using full-length recombinant ITK protein.
(§2) In order to confirm the mechanism by which compounds depicted herein interact with the kinase domain of Tec and EGFR kinases, we created a point mutant of the ITK kinase domain, whereby the key amino acid, namely C442 was mutated to alanine. The protein was expressed in a commercial baculovirus expression system using the manufacturer's general protocol (Invitrogen, pBlueBac). Protein was expressed and purified using standard techniques. […] While the activity of WT-ITK was inhibited by compounds depicted in this application, the same compounds had no activity towards the C442A mutant kinase domain.

LCK kinase domain = target: T3, LCK kinase domain (Homo sapiens, UniProt P06239); experiment: In vitro kinase assay (HITHUNTER), LCK; assay type: biochemical; conditions: Table 2
T3 construct: The kinase domains of BTK, LCK and ERK were expressed as recombinant purified proteins; made in house
Description: as §1

[1] = tested on: T cell leukemia/lymphoma cells; experiment: Mouse in vivo tumor model, peritoneal lavage and FACS analysis; parameters: species or system NOD/SCID mice; conditions: ip, intraperitoneal, relative to mock group treated with vehicle, read-out: % inhibition tumor growth
Description: Several representative compounds were evaluated for efficacy in mouse in vivo tumor models. NOD/SCID mice were implanted intraperitoneally with T cell leukemia/lymphoma cells. One group was treated with vehicle alone (mock treatment) while the other groups were treated with several small molecule inhibitors via intraperitoneal route. Tumor growth was evaluated by peritoneal lavage and FACS analysis. Table 6 summarizes percent inhibition of tumor growth relative to a mock group treated with vehicle alone.

C442A-ITK kinase domain = target: T4, C442A-ITK kinase domain (Homo sapiens, UniProt Q08881, C442A); experiment: In vitro kinase assay, C442A point mutant of ITK kinase domain; assay type: biochemical; conditions: Table 8
T4 construct: we created a point mutant of the ITK kinase domain; made in house; host or cells: baculovirus expression system (Invitrogen, pBlueBac)
T4 sequence (Q08881 363-615 C442A limits assumed): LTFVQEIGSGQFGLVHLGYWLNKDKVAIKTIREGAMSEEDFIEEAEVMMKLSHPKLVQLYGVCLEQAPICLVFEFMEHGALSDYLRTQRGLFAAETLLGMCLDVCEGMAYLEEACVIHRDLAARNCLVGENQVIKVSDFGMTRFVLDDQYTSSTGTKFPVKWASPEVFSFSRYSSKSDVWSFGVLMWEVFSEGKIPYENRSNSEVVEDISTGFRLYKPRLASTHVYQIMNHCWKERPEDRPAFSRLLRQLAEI
Description: as §2

[2] = Table 8, wild type ITK kinase domain, read-out: IC50 wild-type ITK

T1 sequence (Q06187 402-655 limits assumed): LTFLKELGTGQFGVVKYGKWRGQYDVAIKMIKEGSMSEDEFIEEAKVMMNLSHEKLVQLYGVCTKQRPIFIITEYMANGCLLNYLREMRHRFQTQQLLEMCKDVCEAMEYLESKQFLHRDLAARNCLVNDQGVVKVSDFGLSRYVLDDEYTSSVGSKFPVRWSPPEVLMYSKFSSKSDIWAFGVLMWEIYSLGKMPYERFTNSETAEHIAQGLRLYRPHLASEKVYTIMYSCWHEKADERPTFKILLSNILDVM
T3 sequence (P06239 245-498 limits assumed, species assumed): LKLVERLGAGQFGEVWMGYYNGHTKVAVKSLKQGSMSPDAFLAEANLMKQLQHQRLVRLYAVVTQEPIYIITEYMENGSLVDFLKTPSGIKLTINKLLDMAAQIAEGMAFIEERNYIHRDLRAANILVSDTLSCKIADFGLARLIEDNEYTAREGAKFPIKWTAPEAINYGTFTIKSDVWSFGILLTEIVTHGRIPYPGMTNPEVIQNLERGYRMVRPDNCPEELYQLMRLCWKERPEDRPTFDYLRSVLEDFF

| SMILES | pIC50 (BTK kinase domain; Table 2) | pIC50 (ITK kinase domain; Table 2, read-out: IC50 ITK) | pIC50 (LCK kinase domain) | further results |
| --- | --- | --- | --- | --- |
| O=C(CCN1CCOCC1)c1ccc(-c2ccccc2)cc1 | 7.43 | 7.40 | 5.09 | – |
| O=C(CCN1CCOCC1)c1ccc(Cl)c(Cl)c1 | 6.99 | 7.89 | 4.47 | – |
| O=C(CCN1CCOCC1)c1cccc(Br)c1 | 6.44 | 7.60 | – | IC50 LCK (LCK kinase domain): NO IC50 |
| N#Cc1cccc(C(=O)CCN2CCOCC2)c1 | 6.19 | 7.54 | 3.38 | – |
| COc1cccc(C(=O)CCN2CCOCC2)c1 | 6.03 | 7.46 | 4.78 | – |
| O=C(CCN1CCOCC1)c1ccc(F)cc1F | 6.06 | 7.25 | – | IC50 LCK (LCK kinase domain): NO IC50 |
| N#Cc1ccc(C(=O)CCN2CCOCC2)cc1 | 6.13 | 7.14 | – | IC50 LCK (LCK kinase domain): NO IC50 |
| O=C(CCN1CCOCC1)c1cccc2ccccc12 | 6.40 | 7.19 | 4.64 | – |
| O=C(CCN1CCOCC1)c1ccc(Oc2ccccc2)cc1 | 7.03 | 7.04 | 4.73 | – |
| O=C(CCN1CCOCC1)c1cccc(Cl)c1 | 6.11 | 7.11 | 4.32 | – |
| O=C(CCN1CCOCC1)c1ccc2c(c1)OCCO2 | 5.81 | 7.02 | 4.68 | – |
| O=C(CCN1CCOCC1)c1cccc(OC(F)(F)F)c1 | 6.11 | 6.83 | 4.55 | – |
| O=C(CCN1CCOCC1)c1ccc(C(F)(F)F)cc1 | 6.32 | 6.70 | – | IC50 LCK (LCK kinase domain): NO IC50 |
| O=C(CCN1CCOCC1)c1ccc(OC(F)(F)F)cc1 | 5.88 | 6.66 | – | IC50 LCK (LCK kinase domain): NO IC50 |
| O=C(CCN1CCOCC1)c1ccc(Cl)cc1 | 6.17 | 6.54 | 4.59 | – |
| O=C(CCN1CCOCC1)c1ccccc1Br | 6.13 | 6.52 | – | IC50 LCK (LCK kinase domain): NO IC50 |
| O=C(CCN1CCOCC1)c1cccc(F)c1 | 5.52 | 6.42 | 4.49 | – |
| Cc1ccc(C(=O)CCN2CCOCC2)c(C)c1 | 5.83 | 6.41 | 4.60 | – |
| CS(=O)(=O)c1ccc(C(=O)CCN2CCOCC2)cc1 | 6.12 | 6.41 | 4.62 | – |
| Cc1cccc(C(=O)CCN2CCOCC2)c1 | 5.51 | 6.25 | 4.61 | – |
| Cc1ccccc1C(=O)CCN1CCOCC1 | 5.64 | 6.21 | – | IC50 LCK (LCK kinase domain): NO IC50 |
| O=C(CCN1CCOCC1)c1cc(F)ccc1Cl | 6.00 | 6.03 | 4.53 | – |
| O=C(CCN1CCOCC1)c1cc(F)ccc1F | 5.59 | 6.06 | – | IC50 LCK (LCK kinase domain): NO IC50 |

| SMILES | pIC50 (BTK kinase domain; Table 2) | pIC50 (ITK kinase domain; Table 2, read-out: IC50 ITK) | pIC50 (LCK kinase domain) | further results |
| --- | --- | --- | --- | --- |
| CN(CCC(=O)C1=CC2NCC(=O)OC2C=C1)Cc1ccc(F)cc1 (stereo not drawn) | – | – | – | inhibition in vivo at 80 mg/kg [1]: 90 to 99% |
| CN(C)C1CCN(CCC(=O)C2=CC3NCC(=O)OC3C=C2)CC1 (stereo not drawn) | – | – | – | inhibition in vivo at 80 mg/kg [1]: 99% |
| CN(C)C1CCN(CCC(=O)c2ccc3c(c2)NC(=O)CO3)C1 (stereo not drawn) | – | – | – | inhibition in vivo at 100 mg/kg [1]: 99% |
| O=C(CCN1CCOCC1)c1ccc(-c2cccnc2)cc1 | – | – | – | inhibition in vivo at 100 mg/kg [1]: 99% |
| COc1ccc(C(=O)CCN2CCC(N(C)C)CC2)cc1OC | – | – | – | inhibition in vivo at 80 mg/kg [1]: 81 to 95% |
| O=C(CCN1CCOCC1)c1ccc(F)cc1 [drawing 122] | 5.85 | 7.89 | 4.56 | – |
| COc1ccc(C(=O)CCN2CCOCC2)cc1OC [drawing 124] | 5.74 | 7.85 | 4.62 | – |
| O=C(CCN1CCOCC1)c1ccccc1Cl [drawing 133] | – | – | 4.55 | – |
| O=C(CCN1CCOCC1)c1ccccc1Cl [drawing 149] | – | – | – | IC50 LCK (LCK kinase domain): NO IC50 |
| COc1cc2c(cc1OC)CN(CCC(=O)c1ccc3ccccc3c1)CC2 [drawing 212] | – | – | – | pIC50 (BTK kinase domain; Table 5): 6.94; pIC50 (ITK kinase domain; Table 5, read-out: IC50 ITK): 8.14 |
| CN(C)C1CCN(CCC(=O)c2ccc3ccccc3c2)C1 (stereo not drawn) [drawing 214] | – | – | – | pIC50 (BTK kinase domain; Table 5): 7.31; pIC50 (ITK kinase domain; Table 5, read-out: IC50 ITK): 8.16 |
| CN(C)C1CCN(CCC(=O)c2ccc3ccccc3c2)C1 (stereo not drawn) [drawing 240] | – | – | – | inhibition in vivo at 100 mg/kg [1]: 70 to 90% |
| O=C(CCN1CCOCC1)c1ccc2ccccc2c1 [drawing 241] | – | – | – | inhibition in vivo at 100 mg/kg [1]: 85 to 98% |
| COc1ccc(C(=O)CCN2CCOCC2)cc1OC [drawing 242] | – | – | – | inhibition in vivo at 80 mg/kg [1]: 92 to 99% |
| O=C(CCN1CCOCC1)c1ccc(F)cc1 [drawing 243] | – | – | – | inhibition in vivo at 80 mg/kg [1]: 50 to 80% |
| O=C(CCN1CCOCC1)c1ccc2occc2c1 [drawing 246] | – | – | – | inhibition in vivo at 80 mg/kg [1]: 67 to 81% |
| O=C(CCN1CCOCC1)c1cc2ccccc2cn1 [drawing 247] | – | – | – | inhibition in vivo at 80 mg/kg [1]: 92 to 99% |
| COc1cc2c(cc1OC)CN(CCC(=O)c1ccc3c(c1)NC(=O)CO3)CC2 [drawing 249] | – | – | – | inhibition in vivo at 80 mg/kg [1]: 97 to 99% |
| NC(=O)c1ccc2cc(C(=O)CCN3CCOCC3)ccc2c1 [drawing 250] | – | – | – | inhibition in vivo at 30 mg/kg ([1]; 30 mg/kg): 99% |
| O=C1COc2ccc(C(=O)CCN3CCOCC3)cc2N1 [drawing 253] | – | – | – | inhibition in vivo at 20 mg/kg ([1]; 20 mg/kg): 40% |
| CN(C)C1CCN(CCC(=O)c2ccc3ccccc3c2)C1 (stereo not drawn) [drawing 257] | – | – | – | pIC50 (ITK kinase domain; [2]): 7.96; pIC50 (C442A-ITK kinase domain): < 5.00 |
| O=C(CCN1CCOCC1)c1ccc(F)cc1 [drawing 258] | – | – | – | pIC50 (ITK kinase domain; [2]): 7.30; pIC50 (C442A-ITK kinase domain): < 5.00 |

Continued, in another order:

| pIC50 (BTK kinase domain; Table 2) | pIC50 (ITK kinase domain; Table 2, read-out: IC50 ITK) | pIC50 (LCK kinase domain) | SMILES | further results |
| --- | --- | --- | --- | --- |
| 6.37 | 8.30 | 4.90 | COc1cc(OC)cc(C(=O)CCN2CCOCC2)c1 | – |
| 6.18 | 7.37 | 4.57 | O=C(CCN1CCOCC1)c1cccc(C(F)(F)F)c1 | – |
| 5.90 | 7.19 | 4.73 | CC(=O)Nc1cccc(C(=O)CCN2CCOCC2)c1 | – |
| 6.63 | 6.98 | – | O=C(CCN1CCOCC1)c1ccc(Br)cc1 | IC50 LCK (LCK kinase domain): NO IC50 |
| 5.82 | 6.74 | 3.79 | Cc1ccc(C(=O)CCN2CCOCC2)cc1 | – |
| 5.43 | 6.73 | 4.69 | CN(C)c1cccc(C(=O)CCN2CCOCC2)c1 | – |
| 7.03 | 6.68 | 4.73 | O=C(CCN1CCOCC1)c1cccc(Oc2ccccc2)c1 | – |
| 5.54 | 6.68 | 4.48 | O=C(CCN1CCOCC1)c1ccc(F)c(F)c1 | – |
| 7.09 | 6.68 | – | O=C(CCN1CCOCC1)c1c(Cl)cccc1Cl | IC50 LCK (LCK kinase domain): NO IC50 |
| 5.83 | 6.65 | 4.67 | Cc1ccc(C(=O)CCN2CCOCC2)cc1C | – |
| 5.50 | 6.46 | 4.68 | COc1ccc(C(=O)CCN2CCOCC2)c(OC)c1 | – |
| 5.41 | 6.41 | 4.63 | O=C(CCN1CCOCC1)c1ccc2c(c1)OCO2 | – |
| 5.91 | 6.33 | – | O=C(CCN1CCOCC1)c1ccc(F)cc1C(F)(F)F | IC50 LCK (LCK kinase domain): NO IC50 |
| 5.99 | 6.24 | – | O=C(CCN1CCOCC1)c1ccccc1C(F)(F)F | IC50 LCK (LCK kinase domain): NO IC50 |
| 6.25 | 5.89 | 3.15 | CCOc1ccccc1C(=O)CCN1CCOCC1 | – |
| 5.38 | 5.85 | 4.57 | O=C(CCN1CCOCC1)c1ccc(N2CCOCC2)cc1 | – |
| 6.56 | 7.40 | 5.54 | O=C1COc2ccc(C(=O)CCN3CCOCC3)cc2N1 [drawing 120] | – |
| 7.41 | 7.44 | 4.70 | O=C(CCN1CCOCC1)c1ccc2ccccc2c1 [drawing 129] | – |
